Where “and” joins values, the source holds several entries; their conditions need not be identical. Equal values may be shown once. Read-outs that look alike come from different tables or passages of the source.
Columns and labels:
α-amylase [1] = target: T1, α-amylase (Sus scrofa, UniProt P00690); test: Three-dimensional fluorescence spectroscopy of α-amylase complexes; details: 298 K; TAPP 2.5, THPP 10, TCPP 10, Fe–TCPP 12.5, Ni–TCPP 17.5, Cu–TCPP 10 μg/mL
T1 sequence (P00690 16-511): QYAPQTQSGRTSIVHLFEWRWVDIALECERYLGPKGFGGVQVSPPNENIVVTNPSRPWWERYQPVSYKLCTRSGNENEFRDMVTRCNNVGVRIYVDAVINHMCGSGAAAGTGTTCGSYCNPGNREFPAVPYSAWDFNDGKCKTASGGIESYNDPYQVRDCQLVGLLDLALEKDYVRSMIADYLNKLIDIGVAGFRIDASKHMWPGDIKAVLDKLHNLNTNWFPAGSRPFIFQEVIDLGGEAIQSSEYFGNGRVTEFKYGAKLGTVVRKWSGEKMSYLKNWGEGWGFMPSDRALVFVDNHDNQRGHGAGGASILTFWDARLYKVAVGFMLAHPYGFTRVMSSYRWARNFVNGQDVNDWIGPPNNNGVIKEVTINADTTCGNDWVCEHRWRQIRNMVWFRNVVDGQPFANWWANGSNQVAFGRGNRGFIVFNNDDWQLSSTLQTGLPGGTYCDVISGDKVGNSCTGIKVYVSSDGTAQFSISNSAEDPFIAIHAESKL

α-amylase [2] = target: T1, α-amylase; test: FTIR secondary structure analysis of α-AMY complexes; details: enzyme–porphyrin molar ratio 1:2, amide I band
Text: (§1) A molar ratio of 1:2 (α-amylase/α-glucosidase)–porphyrin solution was placed in a cryocentrifugal concentrator and the dried solid sample was mixed with dry KBr and measured using a Nicolet IS-50 FTIR Spectrometer (ThermoFisher, Waltham, MA, USA) with a scanning range of 4000–400 cm^−1 and a resolution of 4 cm^−1. The overlapping peaks in the amide I band (1700–1600 cm^−1) were further analyzed into multiple feature sub-peaks, and quantitative analysis of the relative content of various secondary structures in proteins using curve fitting methods was performed.

α-glucosidase [3] = target: T2, α-glucosidase (Saccharomyces cerevisiae, UniProt P53341); test: Fluorescence quenching, binding and thermodynamics with α-glucosidase
T2 sequence (P53341 whole entry): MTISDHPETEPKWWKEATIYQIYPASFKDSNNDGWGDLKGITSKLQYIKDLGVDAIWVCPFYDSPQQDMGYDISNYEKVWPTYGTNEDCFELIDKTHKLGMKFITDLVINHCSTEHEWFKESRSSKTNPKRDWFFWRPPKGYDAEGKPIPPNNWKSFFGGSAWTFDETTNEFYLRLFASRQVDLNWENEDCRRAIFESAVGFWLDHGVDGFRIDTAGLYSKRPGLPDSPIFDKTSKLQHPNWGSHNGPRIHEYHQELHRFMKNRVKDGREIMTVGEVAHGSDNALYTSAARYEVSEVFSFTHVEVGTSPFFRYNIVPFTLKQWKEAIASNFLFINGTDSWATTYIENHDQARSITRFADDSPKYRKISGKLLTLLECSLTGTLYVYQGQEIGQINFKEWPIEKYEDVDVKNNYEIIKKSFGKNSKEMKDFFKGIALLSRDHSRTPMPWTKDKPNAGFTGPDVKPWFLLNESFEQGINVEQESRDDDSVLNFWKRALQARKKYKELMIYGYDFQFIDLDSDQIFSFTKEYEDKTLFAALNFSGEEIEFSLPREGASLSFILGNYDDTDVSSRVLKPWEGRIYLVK
Description: In the α-amylase experiment, a series of porphyrins and amylase (200 U/L) were mixed in a volume ratio of 1:1. In the α-glucosidase experiment, the glucosidase concentration was 400 U/L, mixed in a volume ratio of 1:1; the samples were maintained at three different temperatures (298, 304, and 310 K) for 30 min, with excitation at 280 nm and emission scanning from 300 to 500 nm.
The Stern–Volmer equation [35] was adopted to determine the quenching mechanisms between six porphyrin compounds and both enzymes in the experimental group, with Formula (6):(6) F0/F=1+Ksv[Q]=1+Kqτ0[Q]
The Stern–Volmer equation was adapted based on experimental data to more accurately characterize the quenching behavior [36], with Formula (7):(7) F0/F=e^Ksv[Q]=e^Kqτ0[Q]
In the formula, the fluorescence quenching ratio was calculated as F0/F, where F0 corresponds to the emission intensity of pure α-amylase solution (control) and F denotes the intensity measured after the incremental addition of porphyrin ligands. KSV and Kq denote the Stern–Volmer quenching constant and the bimolecular quenching rate constant, respectively, τ0 (10^−8 s) is the average fluorescence lifetime of the fluorophore in the absence of quencher, and [Q] indicates the concentration of porphyrin compounds.
Due to the presence of an internal filtration effect, a decrease in the fluorescence intensity of the system may occur. Therefore, all fluorescence data were corrected using Formula (8) to eliminate the internal filtration effect.(8) Fcor=Fobse^(Aex+Aem)/2
The evaluation of the interaction forces between porphyrin compounds and the two enzymes can be achieved by calculating thermodynamic parameters. When both ΔH^0 and ΔS^0 are positive, the predominant interaction force is hydrophobic. When both ΔH^0 and ΔS^0 are negative, the main forces are hydrogen bonding and van der Waals forces. When ΔH^0 < 0 and ΔS^0 > 0, the primary interaction is electrostatic attraction.
The thermodynamic parameters were calculated using Formulas (9) and (10), and then the Van’t Hoff plot for the interactions between the porphyrin compounds and the two enzymes was generated by plotting lnKa on the Y-axis versus 1/T on the X-axis.(9) lnKa=−ΔH^0/RT+ΔS^0/R (10) ΔG^0=ΔH^0−TΔS^0=−RTlnKa

α-glucosidase [4] = target: T2, α-glucosidase; format: biochemical
Text: (§2) In the experiment, the concentration of the fixed substrate Gal-G2-α-CNP/pNPG solution was 5 mmol/L, and the concentrations of the two enzymes (100, 200, 300, 400 U/L) were used to determine the effect of different concentrations of porphyrins on enzyme activity. The concentration of the enzyme was 200 U/L, and the concentration of the substrate Gal-G2-α-CNP/pNPG solution (2.5, 5, 7.5, 10 mmol/L) was used to determine the effect of different concentrations of porphyrins on the enzyme-catalyzed substrate activity.
(§3) Upon identifying the type of inhibition, the kinetic equations vary for different inhibition types.
(§4) In the formula, v, Vmax, Km, Ki, and Kis represent the reaction rate, maximum reaction rate, Michaelis constant, and free enzyme inhibition constant, respectively, and the binding enzyme inhibition constant. [S] denotes the substrate concentration. [I] denotes the inhibitor concentration.

α-amylase [5] = target: T1, α-amylase; test: Mode of α-AMY inhibition (reversibility, Lineweaver–Burk kinetics); format: biochemical
Text: as §2, §3, §4

α-glucosidase [6] = target: T2, α-glucosidase; test: FTIR secondary structure analysis of α-GLU complexes; details: enzyme–porphyrin molar ratio 1:2, amide I band
Text: as §1

[7] = enzyme 100–400 U/L, substrate 5 mmol/L
[8] = enzyme–substrate complex inhibition constant

SMILES: Nc1ccc(-c2c3nc(c(-c4ccc(N)cc4)c4ccc([nH]4)c(-c4ccc(N)cc4)c4nc(c(-c5ccc(N)cc5)c5ccc2[nH]5)C=C4)C=C3)cc1 [TAPP]
- Peak 1 Fluorescence Intensity (α-amylase [1]): 317.2
- Peak 2 Fluorescence Intensity (α-amylase [1]): 7.013
- Random Coil (α-amylase [2]): 9.94% and 9.94 ± 0.02%
- α-Helix (α-amylase [2]): 22.45 ± 0.07%
- β-Antiparallel (α-amylase [2]): 18.98% and 18.98 ± 0.04%
- β-Sheet (α-amylase [2]): 14.62 ± 0.03%
- β-Turn (α-amylase [2]): 34.00 ± 0.09%
- binding constants K (α-glucosidase [3]; 310 K): (0.65 ± 0.02) × 10^5 L·mol^−1
- quenching mechanism of α-glucosidase fluorescence (α-glucosidase [3]; Stern–Volmer plots, 298–310 K): static quenching
- Kq (α-glucosidase [3]; T 298 K): 6.25 ± 0.04 ×10^12 L/mol/s
- Ksv (α-glucosidase [3]; T 298 K): 6.25 ± 0.04 ×10^4 L/mol
- n (number of binding sites) (α-glucosidase [3]; T 298 K): 1.14
- ΔG^0 (α-glucosidase [3]; T 298 K): -7.424 ± 0.019 kcal/mol
- Kq (α-glucosidase [3]; T 304 K): 5.71 ± 0.01 ×10^12 L/mol/s
- Ksv (α-glucosidase [3]; T 304 K): 5.71 ± 0.01 ×10^4 L/mol
- n (number of binding sites) (α-glucosidase [3]; T 304 K): 1.09
- ΔG^0 (α-glucosidase [3]; T 304 K): -7.165 ± 0.012 kcal/mol
- Kq (α-glucosidase [3]; T 310 K): 5.66 ± 0.02 ×10^12 L/mol/s
- Ksv (α-glucosidase [3]; T 310 K): 5.66 ± 0.02 ×10^4 L/mol
- n (number of binding sites) (α-glucosidase [3]; T 310 K): 1.01
- ΔG^0 (α-glucosidase [3]; T 310 K): -6.826 ± 0.012 kcal/mol
- ΔH^0 (α-glucosidase [3]; Van’t Hoff, 298–310 K): -22.23 ± 0.019 kcal/mol
- ΔS^0 (α-glucosidase [3]; Van’t Hoff, 298–310 K): −207.76 ± 0.14 J/mol/k
- Vmax (α-glucosidase [4]; C 12.5 μg/mL): 0.0791 ± 0.0021 ΔOD/min
- Vmax (α-glucosidase [4]; C 15 μg/mL): 0.0767 ± 0.0013 ΔOD/min
- Vmax (α-glucosidase [4]; C 17.5 μg/mL): 0.0736 ± 0.0015 ΔOD/min
- Vmax (α-glucosidase [4]; C 20 μg/mL): 0.0711 ± 0.0011 ΔOD/min
- Vmax (α-glucosidase [4]; C 22.5 μg/mL): 0.0688 ± 0.0012 ΔOD/min
- type of inhibition of α-glucosidase (α-glucosidase [4]; Lineweaver–Burk plots): mixed type
- reversibility of inhibition of α-glucosidase (α-glucosidase [4]; [7]): reversible inhibition
- Kis (α-glucosidase [4]; [8]): 55.1227 ± 0.1247 µg/mL
- Vmax (α-amylase [5]; C 2 μg/mL): 0.1670 ± 0.0030 ΔOD/min
- Vmax (α-amylase [5]; C 4 μg/mL): 0.1562 ± 0.0039 ΔOD/min
- Vmax (α-amylase [5]; C 6 μg/mL): 0.1425 ± 0.0032 ΔOD/min
- Vmax (α-amylase [5]; C 8 μg/mL): 0.1328 ± 0.0034 ΔOD/min
- Vmax (α-amylase [5]; C 10 μg/mL): 0.1243 ± 0.0028 ΔOD/min
- type of inhibition of α-amylase (α-amylase [5]; Lineweaver–Burk plots): mixed type
- reversibility of inhibition of α-amylase (α-amylase [5]; [7]): reversible inhibition
- Kis (α-amylase [5]; [8]): 21.2847 ± 0.0677 µg/mL
- Random Coil (α-glucosidase [6]): 23.93 ± 0.05%
- α-Helix (α-glucosidase [6]): 22.82 ± 0.08%
- β-Antiparallel (α-glucosidase [6]): 1.96 ± 0.01%
- β-Sheet (α-glucosidase [6]): 12.99 ± 0.13%
- β-Turn (α-glucosidase [6]): 38.30 ± 0.08%
